Test results taken from article PMC6242839 (Nature Communications, 2018).
≈ marks a conversion by molar mass, not a printed value.

Key:
[1] = tested on: B. cereus ATCC 14579 strains resistant to known antibiotics; experiment: microbe, parasite or virus in culture; type: cell-based, Bacillus cereus
[2] = tested on: Bacillus cereus ATCC 14579; settings: cited from earlier work
[3] = tested on: B. anthracis ovine strain (animal isolate); experiment: microbe, parasite or virus in culture; type: cell-based; settings: Bacillus anthracis; 16 h at 37 °C; read-out: MIC B. anthracis Ovine
B. cereus (ATCC 10876) = experiment: microbe, parasite or virus in culture; type: cell-based; settings: Bacillus cereus, ATCC10876; 16 h at 37 °C; read-out: MIC B. cereus
E. faecalis (ATCC 29212) = experiment: microbe, parasite or virus in culture; type: cell-based; settings: Enterococcus faecalis, ATCC29212; 16 h at 37 °C; read-out: MIC E. faecalis
[4] = tested on: B. anthracis pathogenic strain (human isolate); experiment: microbe, parasite or virus in culture; type: cell-based; settings: Bacillus anthracis; 16 h at 37 °C; read-out: MIC B. anthracis Pathogenic
[5] = tested on: B. anthracis Sterne strain; experiment: microbe, parasite or virus in culture; type: cell-based; settings: Bacillus anthracis; 16 h at 37 °C; read-out: MIC B. anthracis Sterne
in vitro = settings: human
B. cereus ATCC 14579 = experiment: microbe, parasite or virus in culture; type: cell-based, Bacillus cereus; settings: Bacillus cereus, ATCC14579

| Molecule | MIC of the antibiotic [1] [µg/mL] | MIC [2] [µg/mL] | MIC [3] [µM] | MIC (B. cereus (ATCC 10876)) [µM] | MIC (E. faecalis (ATCC 29212)) [µM] | MIC [4] [µM] | MIC [5] [µM] | IC50 at 24 h (in vitro) [µM] | IC50 at 48 h (in vitro) [µM] | MBC (B. cereus ATCC 14579) [µg/mL] | MIC (B. cereus ATCC 14579) [µg/mL] |
| --- | --- | --- | --- | --- | --- | --- | --- | --- | --- | --- | --- |
| CN[C@H](CC(C)C)C(=O)N[C@H]1C(=O)N[C@@H](CC(N)=O)C(=O)N[C@H]2C(=O)N[C@H]3C(=O)N[C@H](C(=O)N[C@H](C(=O)O)c4cc(O)cc(O)c4-c4cc3ccc4O)[C@H](O)c3ccc(c(Cl)c3)Oc3cc2cc(c3O[C@@H]2O[C@H](CO)[C@@H](O)[C@H](O)[C@H]2O[C@H]2C[C@](C)(N)[C@H](O)[C@H](C)O2)Oc2ccc(cc2Cl)[C@H]1O [Vancomycin] | 5 | 0.18 (≈ 0.124 µM) | – | – | – | – | – | – | – | – | – |
| NC[C@H]1O[C@H](O[C@H]2[C@H](O)[C@@H](O[C@H]3O[C@H](CO)[C@@H](O)[C@H](N)[C@H]3O)[C@H](N)C[C@@H]2N)[C@H](O)[C@@H](O)[C@@H]1O [Kanamycin] | – | 15 (≈ 31 µM) | – | – | – | – | – | – | – | – | – |
| CC1(C)S[C@@H]2[C@H](NC(=O)[C@H](N)c3ccccc3)C(=O)N2[C@H]1C(=O)O [Ampicillin] | – | 0.25 (≈ 0.715 µM) | – | – | – | – | – | – | – | – | – |
| CCCCCCCCCCCCS[C@H]1C[C@H](O)[C@@H](O)[C@H](C)O1 [Compound 2] | – | – | 48 (≈ 16 µg/mL) | 48 (≈ 16 µg/mL) | > 48 | 48 (≈ 16 µg/mL) | 24 (≈ 7.98 µg/mL) | > 50 | > 50 | – | – |
| CCn1cc(C(=O)O)c(=O)c2cc(F)c(N3CCNCC3)cc21 [Norfloxacin] | – | 1.25 (≈ 3.91 µM) | – | – | – | – | – | – | – | – | – |
| CO[C@H]1/C=C/O[C@@]2(C)Oc3c(C)c(O)c4c(O)c(c(/C=N/N5CCN(C)CC5)c(O)c4c3C2=O)NC(=O)/C(C)=C\C=C\[C@H](C)[C@H](O)[C@@H](C)[C@@H](O)[C@@H](C)[C@H](OC(C)=O)[C@@H]1C [Rifampicin] | – | 0.5 (≈ 0.608 µM) | – | – | – | – | – | – | – | – | – |
| CCCCCCCCCCCC[C@@H]1C[C@@H](O)[C@H](O)CO1 [Compound 21, 1-(2-Deoxy-α-D-threo-pentopyranosyl)dodecane] | – | – | 28 (≈ 8.02 µg/mL) | 28 (≈ 8.02 µg/mL) | 56 (≈ 16 µg/mL) | 28 (≈ 8.02 µg/mL) | 28 (≈ 8.02 µg/mL) | > 100 | 100 | – | – |
| Daptomycin | – | 3.125 | – | – | – | – | – | – | – | – | – |
| CCCCCCCCCCCC[C@@H]1C[C@@H](O)[C@H](O)[C@@H](C)O1 [Compound 10, 1-(2,6-Dideoxy-α-D-arabino-hexopyranosyl)dodecane] | – | – | 27 (≈ 8.11 µg/mL) | 27 (≈ 8.11 µg/mL) | > 54 | 27 (≈ 8.11 µg/mL) | 27 (≈ 8.11 µg/mL) | > 100 | > 100 | 32 (≈ 106 µM) | 32 (≈ 106 µM) |
| CCCCCCCCCCCCO[C@H]1C[C@H](O)[C@@H](O)CO1 [Compound 7] | – | – | 52 (≈ 15.7 µg/mL) | – | 52 (≈ 15.7 µg/mL) | 52 (≈ 15.7 µg/mL) | 26 (≈ 7.86 µg/mL) | > 100 | 100 | 16 (≈ 52.9 µM) | 16 (≈ 52.9 µM) |
| CCCCCCCCCCCCO[C@H]1C[C@H](O)[C@H](O)[C@H](C)O1 [Compound 4] | – | – | 25 (≈ 7.91 µg/mL) | 25 (≈ 7.91 µg/mL) | > 50 | 25 (≈ 7.91 µg/mL) | 25 (≈ 7.91 µg/mL) | 100 | 50 | – | – |
| CCCCCCCCCCCCO[C@@H]1O[C@H](C)C[C@H](O)[C@H]1O [Compound 12] | – | – | > 405 | > 405 | > 405 | > 405 | > 405 | – | 50 | – | – |
| Penicillin | 20 | – | – | – | – | – | – | – | – | – | – |
| CCCCCCCCCCCCO[C@@H]1C[C@@H](O)[C@H](O)[C@@H](C)O1 [Compound 9] | – | – | 50 (≈ 15.8 µg/mL) | 25 (≈ 7.91 µg/mL) | 50 (≈ 15.8 µg/mL) | 50 (≈ 15.8 µg/mL) | 50 (≈ 15.8 µg/mL) | 100 | 50 | – | – |
| CN(C)[C@@H]1C(O)=C(C(N)=O)C(=O)[C@@]2(O)C(O)=C3C(=O)c4c(O)cccc4[C@@](C)(O)[C@H]3C[C@@H]12 [Tetracycline] | 50 | 2.5 (≈ 5.63 µM) | – | – | – | – | – | – | – | – | – |
| CCCCCCCCCCCCO[C@H]1O[C@H](C)C[C@H](O)[C@H]1O [Compound 11, dodecyl 4,6-dideoxy-α-D-xylo-hexopyranoside] | – | – | 12.6 (≈ 3.99 µg/mL) | 12.6 (≈ 3.99 µg/mL) | 12.6 (≈ 3.99 µg/mL) | 12.6 (≈ 3.99 µg/mL) | 12.6 (≈ 3.99 µg/mL) | – | 50 | – | – |

| Molecule | MIC of the antibiotic [1] [µg/mL] | MIC [2] [µg/mL] | MIC [3] [µM] | MIC (B. cereus (ATCC 10876)) [µM] | MIC (E. faecalis (ATCC 29212)) [µM] | MIC [4] [µM] | MIC [5] [µM] | IC50 at 24 h (in vitro) [µM] | IC50 at 48 h (in vitro) [µM] | MBC (B. cereus ATCC 14579) [µg/mL] | MIC (B. cereus ATCC 14579) [µg/mL] |
| --- | --- | --- | --- | --- | --- | --- | --- | --- | --- | --- | --- |
| CNC(C)C1CCC(N)C(OC2C(N)CC(N)C(OC3OCC(C)(O)C(NC)C3O)C2O)O1 (stereo not shown) [Gentamicin] | – | 4 (≈ 8.38 µM) | – | – | – | – | – | – | – | – | – |
| CCCCCCCCCCCCO[C@@H]1C[C@H](O)[C@@H](O)CO1 [Compound 8] | – | – | 52 (≈ 15.7 µg/mL) | – | 52 (≈ 15.7 µg/mL) | 26 (≈ 7.86 µg/mL) | 26 (≈ 7.86 µg/mL) | – | – | – | – |
| CCCCCCCCCCCCO[C@H]1C[C@@H](O)[C@H](O)CO1 [Compound 18] | – | – | 52 (≈ 15.7 µg/mL) | 52 (≈ 15.7 µg/mL) | 52 (≈ 15.7 µg/mL) | 26 (≈ 7.86 µg/mL) | 26 (≈ 7.86 µg/mL) | > 100 | > 50 | – | – |
| CCCCCCCCCCCC[C@@H]1C[C@@H](O)[C@H](O)[C@@H](CO)O1 [Compound 14] | – | – | 51 (≈ 16.1 µg/mL) | 51 (≈ 16.1 µg/mL) | 51 (≈ 16.1 µg/mL) | 51 (≈ 16.1 µg/mL) | 104 (≈ 32.9 µg/mL) | – | – | – | – |
| CCCCCCCCCCCCS[C@H]1C[C@@H](O)[C@H](O)CO1 [Compound 20] | – | – | 50 (≈ 15.9 µg/mL) | 50 (≈ 15.9 µg/mL) | > 50 | 50 (≈ 15.9 µg/mL) | 25 (≈ 7.96 µg/mL) | – | – | 32 (≈ 100 µM) | 32 (≈ 100 µM) |
| O=C(O)c1cn(C2CC2)c2cc(N3CCNCC3)c(F)cc2c1=O [Ciprofloxacin] | 50 | 0.32 (≈ 0.966 µM) | – | – | – | – | – | – | – | – | – |
| CCCCCCCCCCCCO[C@@H]1C[C@H](O)[C@@H](O)[C@H](C)O1 [Compound 5] | – | – | 101 (≈ 32 µg/mL) | 202 (≈ 63.9 µg/mL) | 101 (≈ 32 µg/mL) | 101 (≈ 32 µg/mL) | 202 (≈ 63.9 µg/mL) | – | – | – | – |
| CCCCCCCCCCCCO[C@@H]1C[C@@H](O)[C@H](O)CO1 [Compound 17] | – | – | 52 (≈ 15.7 µg/mL) | 52 (≈ 15.7 µg/mL) | > 52 | 52 (≈ 15.7 µg/mL) | 26 (≈ 7.86 µg/mL) | > 100 | > 100 | 16 (≈ 52.9 µM) | 16 (≈ 52.9 µM) |
| CCCCCCCCCCCCO[C@H]1O[C@H](C)[C@@H](O)[C@H](O)[C@@H]1O [Compound 16] | – | – | > 48 | 48 (≈ 16 µg/mL) | > 48 | 24 (≈ 7.98 µg/mL) | 24 (≈ 7.98 µg/mL) | – | – | – | – |
| CCCCCCCCCCCCO[C@@H]1O[C@@H](C)[C@H](O)[C@@H](O)[C@H]1O [Compound 6] | – | – | 48 (≈ 16 µg/mL) | – | 48 (≈ 16 µg/mL) | 24 (≈ 7.98 µg/mL) | 24 (≈ 7.98 µg/mL) | – | – | 32 (≈ 96.2 µM) | 32 (≈ 96.2 µM) |
| CCCCCCCCCCCCO[C@H]1O[C@H](CO)C[C@H](O)[C@H]1O [Compound 15] | – | – | 51 (≈ 17 µg/mL) | 51 (≈ 17 µg/mL) | 51 (≈ 17 µg/mL) | 51 (≈ 17 µg/mL) | 51 (≈ 17 µg/mL) | – | – | – | – |
| O=C(N[C@H](CO)[C@H](O)c1ccc([N+](=O)[O-])cc1)C(Cl)Cl [Chloramphenicol, reference compound] | – | 2.5 (≈ 7.74 µM) | 25 (≈ 8.08 µg/mL) | 19 (≈ 6.14 µg/mL) | 19 (≈ 6.14 µg/mL) | 25 (≈ 8.08 µg/mL) | 25 (≈ 8.08 µg/mL) | – | – | – | – |
| CCCCCCCCCCCC[C@H]1C[C@H](O)[C@@H](O)[C@H](C)O1 [Compound 3] | – | – | 54 (≈ 16.2 µg/mL) | 27 (≈ 8.11 µg/mL) | > 54 | 54 (≈ 16.2 µg/mL) | 27 (≈ 8.11 µg/mL) | > 100 | 100 | – | – |
| CCCCCCCCCCCCS[C@@H]1C[C@@H](O)[C@H](O)CO1 [Compound 19] | – | – | 50 (≈ 15.9 µg/mL) | 25 (≈ 7.96 µg/mL) | 50 (≈ 15.9 µg/mL) | 25 (≈ 7.96 µg/mL) | 50 (≈ 15.9 µg/mL) | – | – | – | – |
| Colistin | – | > 5000 | – | – | – | – | – | – | – | – | – |
